Article PMC4728423, “Natural and synthetic flavonoid modulation of TRPC5 channels” (British Journal of Pharmacology, 2016)
Where two headings read alike, the source gives them in different places.

Assays:
Cav1.2 channels = system: Cav1.2 channels; set-up: method as in Saponara et al., 2011; settings: smooth muscle; ref Saponara et al., 2011; cited from earlier work
BKCa channels = system: BKCa channels; set-up: method as in Cogolludo et al., 2007; Xu et al., 2008b; settings: ref Cogolludo et al., 2007; Xu et al., 2008b; cited from earlier work
human TRPC5 [1] = biological target: T1, human TRPC5 (Homo sapiens, UniProt Q9UL62); assay: Gd3+-evoked Ca2+ entry in TRPC5-expressing (Tet+) HEK 293 cells; format: cell-based; settings: for effect on Gd3+-evoked Ca2+ entry (natural flavonoid screen): XRhod-1; for IC50: TRPC5 (Tet+) HEK 293, 50 μM Gd3+, fluo-4, 30 min pretreatment, read-out: IC50, inhibition of Gd3+-evoked Ca2+ entry
T1 construct: expressed in transfected cells
T1 sequence (Q9UL62 1-973): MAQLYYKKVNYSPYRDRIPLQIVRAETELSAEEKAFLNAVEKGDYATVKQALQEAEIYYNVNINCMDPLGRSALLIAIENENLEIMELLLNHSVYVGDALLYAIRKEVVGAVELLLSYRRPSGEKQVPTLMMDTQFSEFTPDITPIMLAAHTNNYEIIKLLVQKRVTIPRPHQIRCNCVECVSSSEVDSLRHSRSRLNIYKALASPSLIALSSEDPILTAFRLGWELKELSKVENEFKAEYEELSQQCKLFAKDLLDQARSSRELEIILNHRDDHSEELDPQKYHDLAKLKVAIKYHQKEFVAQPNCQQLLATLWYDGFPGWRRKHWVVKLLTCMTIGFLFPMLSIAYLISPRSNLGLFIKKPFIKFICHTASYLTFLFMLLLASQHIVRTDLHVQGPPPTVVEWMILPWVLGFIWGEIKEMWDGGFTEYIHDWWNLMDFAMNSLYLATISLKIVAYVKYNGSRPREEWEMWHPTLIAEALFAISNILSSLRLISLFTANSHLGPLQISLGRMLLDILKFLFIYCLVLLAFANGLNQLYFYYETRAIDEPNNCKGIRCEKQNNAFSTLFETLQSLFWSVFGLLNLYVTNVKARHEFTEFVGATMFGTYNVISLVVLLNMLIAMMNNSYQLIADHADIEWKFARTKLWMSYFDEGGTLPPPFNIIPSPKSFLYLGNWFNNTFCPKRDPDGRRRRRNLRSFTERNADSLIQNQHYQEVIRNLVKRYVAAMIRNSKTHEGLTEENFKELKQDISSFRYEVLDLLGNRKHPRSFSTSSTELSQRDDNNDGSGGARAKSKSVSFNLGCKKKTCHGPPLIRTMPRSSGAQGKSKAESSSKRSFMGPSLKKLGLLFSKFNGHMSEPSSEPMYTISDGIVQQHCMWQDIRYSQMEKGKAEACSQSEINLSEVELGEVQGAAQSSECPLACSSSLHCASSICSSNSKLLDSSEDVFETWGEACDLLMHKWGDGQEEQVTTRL

human TRPC5 [2] = biological target: T1, human TRPC5; assay: Whole-cell patch clamp of TRPC5-expressing (Tet+) HEK 293 cells; format: cell-based
human TRPC5 [3] = biological target: T1, human TRPC5; assay: Outside-out patch recordings from TRPC5 Tet+ cells; format: cell-based; settings: 10 μM compound, 100 μM Gd3+
[4] = biological target: endogenous TRPC5-containing channels (Mus musculus, UniProt Q9QX29); assay: Ca2+ entry through endogenous channels in differentiated 3T3-L1 cells; format: cell-based; settings: estimated
Method: The 3T3‐L1 cell line was obtained from the American Type Culture Collection and cultured in DMEM‐F12 containing 10% fetal calf serum (FCS), 100 U·mL^−1 penicillin and 100 μg·mL^−1 streptomycin. To induce differentiation, cells were grown to confluence, and 2 days post‐confluence, the medium was changed to a medium containing 5 μg·mL^−1 insulin, 0.25 μM dexamethasone and 0.5 mM IBMX with 10% FCS and antibiotics. After 48 h, medium was changed to a maintenance medium containing 5 μg·mL^−1 insulin, 10% FCS and antibiotics. Cells were fed with fresh maintenance medium every 2 days until the day of experiments. For all experiments, cells were differentiated for 12–16 days.
Induced (Tet+) and non‐induced (Tet−) cells were plated in poly‐d‐lysine‐coated black 96‐well plates (Corning, Corning, NY, USA) at a confluence of 90% 24 h before experimentation. […] Cells were washed three times with SBS before measurements were made at room temperature (21 ± 2 °C) on a 96‐well fluorescence plate reader (FlexStation II^384, Molecular Devices, Sunnyvale, CA, USA). […] Readings were made every 10 s. Fura‐2 measurements are shown as the fluorescence (F) ratio or change (Δ) in this ratio. Fluo‐4 and XRhod‐1 measurements are shown as absolute fluorescence in arbitrary units or changes in this fluorescence (ΔF). […]

3T3-L1 cells = settings: cited from earlier work
[5] = system: GABA-evoked ionic currents; set-up: method as in Goutman et al., 2003; settings: ref Goutman et al., 2003; cited from earlier work

Chain of endogenous TRPC5-containing channels (Q9QX29 whole entry): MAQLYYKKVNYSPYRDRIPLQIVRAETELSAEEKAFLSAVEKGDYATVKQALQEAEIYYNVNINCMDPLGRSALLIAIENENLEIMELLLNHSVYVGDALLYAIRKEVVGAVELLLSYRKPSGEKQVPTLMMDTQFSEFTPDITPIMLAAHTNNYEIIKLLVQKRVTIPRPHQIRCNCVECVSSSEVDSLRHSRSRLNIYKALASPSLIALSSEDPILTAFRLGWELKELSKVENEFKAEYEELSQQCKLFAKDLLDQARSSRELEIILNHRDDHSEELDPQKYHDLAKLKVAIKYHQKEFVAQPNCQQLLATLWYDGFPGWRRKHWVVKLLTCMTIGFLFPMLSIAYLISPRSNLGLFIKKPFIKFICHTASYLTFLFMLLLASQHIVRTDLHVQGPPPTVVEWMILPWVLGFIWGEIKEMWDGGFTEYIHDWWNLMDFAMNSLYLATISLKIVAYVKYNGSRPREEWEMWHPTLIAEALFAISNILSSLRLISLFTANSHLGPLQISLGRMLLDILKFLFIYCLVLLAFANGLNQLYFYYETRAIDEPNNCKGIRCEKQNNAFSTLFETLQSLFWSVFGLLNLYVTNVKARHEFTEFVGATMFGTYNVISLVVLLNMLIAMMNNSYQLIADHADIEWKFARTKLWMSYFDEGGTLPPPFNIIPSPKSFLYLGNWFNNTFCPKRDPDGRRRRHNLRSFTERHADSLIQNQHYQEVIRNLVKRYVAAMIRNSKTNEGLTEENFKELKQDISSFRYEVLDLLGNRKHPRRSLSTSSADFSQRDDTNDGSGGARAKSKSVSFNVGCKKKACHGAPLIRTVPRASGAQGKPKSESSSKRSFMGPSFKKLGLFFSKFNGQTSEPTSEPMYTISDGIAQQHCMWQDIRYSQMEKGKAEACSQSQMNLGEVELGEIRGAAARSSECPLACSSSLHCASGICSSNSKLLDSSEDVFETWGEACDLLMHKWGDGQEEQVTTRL
Chain of endogenous TRPC5-containing channels (Q61056 whole entry partner): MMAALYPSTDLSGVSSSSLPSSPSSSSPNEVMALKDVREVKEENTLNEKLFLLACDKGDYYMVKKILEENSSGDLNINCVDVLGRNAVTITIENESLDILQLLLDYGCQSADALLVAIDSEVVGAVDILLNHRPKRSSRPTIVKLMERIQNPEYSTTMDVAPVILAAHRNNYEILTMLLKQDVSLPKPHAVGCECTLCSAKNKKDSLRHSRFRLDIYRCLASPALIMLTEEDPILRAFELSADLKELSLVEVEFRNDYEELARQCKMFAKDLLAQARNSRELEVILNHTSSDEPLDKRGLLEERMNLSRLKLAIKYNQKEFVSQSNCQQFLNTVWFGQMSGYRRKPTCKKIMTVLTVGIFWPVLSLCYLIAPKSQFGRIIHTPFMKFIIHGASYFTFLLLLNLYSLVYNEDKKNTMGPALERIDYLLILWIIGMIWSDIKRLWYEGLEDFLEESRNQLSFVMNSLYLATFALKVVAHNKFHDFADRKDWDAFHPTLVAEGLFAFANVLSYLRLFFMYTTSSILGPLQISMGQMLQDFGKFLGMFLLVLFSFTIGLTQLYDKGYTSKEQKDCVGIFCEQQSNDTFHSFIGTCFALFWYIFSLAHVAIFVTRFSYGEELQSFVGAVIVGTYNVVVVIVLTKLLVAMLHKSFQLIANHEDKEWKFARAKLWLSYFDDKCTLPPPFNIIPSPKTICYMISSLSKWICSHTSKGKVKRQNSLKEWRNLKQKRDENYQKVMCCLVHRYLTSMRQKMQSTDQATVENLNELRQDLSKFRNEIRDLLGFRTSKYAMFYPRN

O=c1c(O)c(-c2ccc(O)cc2)oc2cc(O)cc(O)c12 [Kaempferol]
effect on Cav1.2 channels (Cav1.2 channels): stimulators
effect on BKCa channels (BKCa channels): stimulated
effect on Gd3+-evoked Ca2+ entry (natural flavonoid screen) (human TRPC5 [1]; 10 μM, 50 μM Gd3+): inhibitors
IC50 (human TRPC5 [1]): 3.9 µM

NCCOB(c1ccccc1)c1ccccc1 [2‐aminoethoxydiphenylborate]
effect on TRPC5 whole-cell current after galangin (human TRPC5 [2]; 75 μM, applied after Gd3+ and galangin): further inhibited the current

O=c1c(O)c(-c2ccccc2)oc2cc(O)cc(O)c12 [Galangin]
effect on Gd3+-evoked TRPC5-mediated whole-cell current (human TRPC5 [2]; 10 μM compound, 30 μM Gd3+, Ca2+ or Ba2+ in bath): effective
time to effect on whole-cell current (human TRPC5 [2]; 10 μM, 30 μM Gd3+): ≤ 2 min
effect on TRPC5 current stimulated by S1P (human TRPC5 [2]; whole-cell, 10 μM compound, 5 μM S1P): effective
reversibility on washout (human TRPC5 [2]; whole-cell, 10 μM, Gd3+-evoked current): not readily reversed on washout
effect on Cav1.2 channels (Cav1.2 channels): inhibited
effect on TRPC5-mediated current in excised outside-out patches (human TRPC5 [3]): inhibited
IC50 ([4]; fluo-4, 20 μM La3+, read-out: IC50 for inhibition of La3+-evoked Ca2+ entry): 6.05 µM
IC50 ([4]; fluo-4, constitutive activity, read-out: IC50 for inhibition of basal Ca2+): 1.85 µM
effect in 3T3-L1 cells / on adipocyte differentiation (3T3-L1 cells; ref Jung et al., 2012): anti‐adipogenic effects
effect on Gd3+-evoked Ca2+ signal (natural product screen) (human TRPC5 [1]; 10 μM, 30 min pre-incubation, 50 μM Gd3+, fluo-4): inhibitory
IC50 (human TRPC5 [1]): 0.45 µM

O=c1c(O)c(-c2ccc(O)c(O)c2)oc2cc(O)cc(O)c12 [Quercetin]
effect on Cav1.2 channels (Cav1.2 channels): stimulators
effect on GABA-evoked ionic currents [5]: inhibited
effect on 3T3-L1 cell growth and apoptosis (3T3-L1 cells; ref Hsu and Yen, 2006): inhibited
effect on BKCa channels (BKCa channels): stimulated
effect on Gd3+-evoked Ca2+ entry (natural flavonoid screen) (human TRPC5 [1]; 10 μM, 50 μM Gd3+): inhibitors
IC50 (human TRPC5 [1]): 6.5 µM

O=c1cc(-c2ccc(O)c(O)c2)oc2cc(O)cc(O)c12 [Luteolin]
IC50 (human TRPC5 [1]): > 10 µM

O=c1c(O)c(-c2cc(O)c(O)c(O)c2)oc2cc(O)cc(O)c12 [Myricetin]
effect on Cav1.2 channels (Cav1.2 channels): stimulators
IC50 (human TRPC5 [1]): > 10 µM
